Earlier results, collected in PubChem BioAssay AID1259409 (Chemical Carcinogenesis Research Information System (CCRIS), 2018).

Tested on: rodent chemically induced tumor inhibition, incidence and multiplicity
Assay: CCRIS tumor inhibitor studies
Conditions: Route [Inhibitor]: ORAL, Promoter: NONE USED

CC1=C(CC(=O)O)c2cc(F)ccc2/C1=C\c1ccc(S(C)=O)cc1 (stereo unspecified)
tumour outcome (control, treated, inhibition, significance) (Carcinogen: 1,2-DIMETHYLHYDRAZINE HYDROCHLORIDE, 306-37-6, Dose [Inhibitor]: 5 MG/KG BW IN DRINKING WATER ADMINISTERED CONCURRENTLY WITH CARCINOGEN FOR 24 WK (STUDY DURATION: 24 WK), Species: MOUSE, Strain/Sex: BALB/FEMALE, Target Tissue: Type of Lesion: COLON: MICROADENOMA, Dose [Carcinogen]: 25 MG/KG BW IN 0.4% EDTA AND 0.9% NORMAL SALINE 1/WK FOR 24 WK): 35/38 (92%), 18/38 (47%), 49%, not calculated
tumour outcome (control, treated, inhibition, significance) (Carcinogen: 1,2-DIMETHYLHYDRAZINE HYDROCHLORIDE, 306-37-6, Dose [Inhibitor]: 5 MG/KG BW IN DRINKING WATER BEGINNING 10 D POST LAST CARCINOGEN DOSE AND CONTINUING FOR 78 D (STUDY DURATION: 28 WK), Species: MOUSE, Strain/Sex: BALB/FEMALE, Target Tissue: Type of Lesion: COLON: MICROADENOMA, Dose [Carcinogen]: 25 MG/KG BW IN 0.4% EDTA AND 0.9% NORMAL SALINE 1/WK FOR 17 WK): 15/18 (83%), 13/18 (72%), 13%, not calculated
tumour outcome (control, treated, inhibition, significance) (Carcinogen: 1-METHYL-1-NITROSOUREA, 684-93-5, Dose [Inhibitor]: 0, 0.06% IN A PURIFIED HIGH-FAT (24.6%) DIET FOR 37 WK BEGINNING 1 WK POST CARCINOGEN DOSE (STUDY DURATION:38 WK), Species: RAT, Strain/Sex: SPRAGUE-DAWLEY/FEMALE, Target Tissue: Type of Lesion: MAMMARY GLAND: CARCINOMA, Dose [Carcinogen]: 12.5 MG/KG BW ONCE): 30%, 9%, 70%, p<0.05
tumour outcome (control, treated, inhibition, significance) (Carcinogen: 1-METHYL-1-NITROSOUREA, 684-93-5, Dose [Inhibitor]: 0, 0.06% IN DIET FOR DURATION OF STUDY BEGINNING 7 D POST CARCINOGEN DOSE (STUDY DURATION: 24 WK), Species: RAT, Strain/Sex: SPRAGUE-DAWLEY/FEMALE, Target Tissue: Type of Lesion: MAMMARY GLAND: ADENOCARCINOMA, Dose [Carcinogen]: 50 MG/KG ONCE): 93%, 87%, 6%, not significant
tumour outcome (control, treated, inhibition, significance) (Carcinogen: 4-(METHYLNITROSAMINO)-1-(3-PYRIDYL)-1-BUTANONE, 64091-91-4, Dose [Inhibitor]: 0, 0.13 G/KG DIET (EFFECTIVE DOSE 0.95 UMOL/D) BEGINNING 2 WK PRIOR TO CARCINOGEN TREATMENT AND CONTINUING FOR DURATION, Species: MOUSE, Strain/Sex: STRAIN-A/FEMALE, Target Tissue: Type of Lesion: LUNG: TUMORS, Dose [Carcinogen]: 9.0-9.2 MG/MOUSE (TOTAL DOSE) IN DRINKING WATER ADMINISTERED OVER 7 WK): 28/28 (100%), 23/25 (92%), 8%, not significant
tumour outcome (control, treated, inhibition, significance) (Carcinogen: 4-(METHYLNITROSAMINO)-1-(3-PYRIDYL)-1-BUTANONE, 64091-91-4, Dose [Inhibitor]: 0, 15 MG/KG BW IN DIET FOR DURATION OF STUDY BEGINNING 2 WK PRIOR TO CARCINOGEN TREATMENT (STUDY DURATION: 25 WK), Species: MOUSE, Strain/Sex: STRAIN-A/FEMALE, Target Tissue: Type of Lesion: LUNG: TUMOR, Dose [Carcinogen]: 9.1 MG/MOUSE (TOTAL DOSE) ADMINISTERED IN DRINKING WATER OVER 7 WK): 23/24 (96%), 25/25 (100%), -4%, not significant
outcome (Carcinogen: 4-(METHYLNITROSAMINO)-1-(3-PYRIDYL)-1-BUTANONE, 64091-91-4, Dose [Inhibitor]: 0, 123 MG/KG DIET FOR 2 WK BEGINNING 2 WK PRIOR TO CARCINOGEN TREATMENT (STUDY DURATION: 18 WK), Species: MOUSE, Strain/Sex: STRAIN-A/FEMALE, Target Tissue: Type of Lesion: LUNG: TUMOR, Dose [Carcinogen]: 2 MG IN 0.5 ML 0.9% SALINE ONCE): 25/25 (100%), 20/20 (100%), o%, not significant
outcome (Carcinogen: 4-(METHYLNITROSAMINO)-1-(3-PYRIDYL)-1-BUTANONE, 64091-91-4, Dose [Inhibitor]: 0, 123 MG/KG DIET FOR 18 WK BEGINNING 2 WK PRIOR TO CARCINOGEN TREATMENT (STUDY DURATION: 18 WK), Species: MOUSE, Strain/Sex: STRAIN-A/FEMALE, Target Tissue: Type of Lesion: LUNG: TUMOR, Dose [Carcinogen]: 2 MG IN 0.5 ML 0.9% SALINE ONCE): 25/25 (100%), 24/24 (100%), o%, not significant
outcome (Carcinogen: 4-(METHYLNITROSAMINO)-1-(3-PYRIDYL)-1-BUTANONE, 64091-91-4, Dose [Inhibitor]: 0, 123 MG/KG DIET FOR 25 WK BEGINNING 2 WK PRIOR TO CARCINOGEN TREATMENT (STUDY DURATION: 25 WK), Species: MOUSE, Strain/Sex: STRAIN-A/FEMALE, Target Tissue: Type of Lesion: LUNG: TUMOR, Dose [Carcinogen]: 62.4 UG/ML IN DRINKING WATER FOR 7 WK FOR A CUMULATIVE DOSE OF 9.1 MG/MOUSE): 25/25 (100%), 24/24 (100%), o%, not significant
tumour outcome (control, treated, inhibition, significance) (Carcinogen: 4-(METHYLNITROSAMINO)-1-(3-PYRIDYL)-1-BUTANONE, 64091-91-4, Dose [Inhibitor]: 0, 123 MG/KG IN DIET FOR 9 WK BEGINNING 2 WK PRIOR TO CARCINOGEN TREATMENT (STUDY DURATION: 25 WK), Species: MOUSE, Strain/Sex: STRAIN-A/FEMALE, Target Tissue: Type of Lesion: FORESTOMACH: TUMOR, Dose [Carcinogen]: 9.1 MG IN DRINKING WATER FOR 7 WK): 7/25 (28%), 2/25 (8%), 71%, not significant
tumour outcome (control, treated, inhibition, significance) (Carcinogen: 4-(METHYLNITROSAMINO)-1-(3-PYRIDYL)-1-BUTANONE, 64091-91-4, Dose [Inhibitor]: 0, 123 MG/KG IN DIET FOR 16 WK BEGINNING POST CARCINOGEN TREATMENT (STUDY DURATION: 25 WK), Species: MOUSE, Strain/Sex: STRAIN-A/FEMALE, Target Tissue: Type of Lesion: FORESTOMACH: TUMOR, Dose [Carcinogen]: 9.1 MG IN DRINKING WATER FOR 7 WK): 7/25 (28%), 3/22 (14%), 50%, not significant
tumour outcome (control, treated, inhibition, significance) (Carcinogen: 4-(METHYLNITROSAMINO)-1-(3-PYRIDYL)-1-BUTANONE, 64091-91-8, Dose [Inhibitor]: 0, 123 MG/KG IN DIET FOR 25 WK BEGINNING 2 WK PRIOR TO CARCINOGEN TREATMENT (STUDY DURATION: 25 WK), Species: MOUSE, Strain/Sex: STRAIN-A/FEMALE, Target Tissue: Type of Lesion: FORESTOMACH: TUMOR, Dose [Carcinogen]: 9.1 MG IN DRINKING WATER FOR 7 WK): 7/25 (28%), 1/25 (4%), 86%, p<0.05
tumour outcome (control, treated, inhibition, significance) (Carcinogen: AZOXYMETHANE, 25843-45-2, Dose [Inhibitor]: 0, 160 PPM IN DIET FOR DURATION OF STUDY BEGINNING 2 WK PRIOR TO CARCINOGEN TREATMENT (STUDY DURATION: 54 WK), Species: RAT, Strain/Sex: F344/MALE, Target Tissue: Type of Lesion: COLON: ADENOCARCINOMA, Dose [Carcinogen]: 15 MG/KG BW 1/WK FOR 2 WK): 81%, 47%, 42%, p<0.01
tumour outcome (control, treated, inhibition, significance) (Carcinogen: AZOXYMETHANE, 25843-45-2, Dose [Inhibitor]: 0, 320 PPM IN DIET FOR 38 WK BEGINNING 14 WK POST CARCINOGEN TREATMENT (STUDY DURATION: 54 WK), Species: RAT, Strain/Sex: F344/MALE, Target Tissue: Type of Lesion: COLON: ADENOCARCINOMA, Dose [Carcinogen]: 15 MG/KG BW 1/WK FOR 2 WK): 81%, 26%, 68%, p<0.0001
tumour outcome (control, treated, inhibition, significance) (Carcinogen: AZOXYMETHANE, 25843-45-2, Dose [Inhibitor]: 0, 320 PPM IN DIET FOR DURATION OF STUDY BEGINNING 2 WK PRIOR TO CARCINOGEN TREATMENT (STUDY DURATION: 54 WK), Species: RAT, Strain/Sex: F344/MALE, Target Tissue: Type of Lesion: COLON: ADENOCARCINOMA, Dose [Carcinogen]: 15 MG/KG BW 1/WK FOR 2 WK): 81%, 36%, 56%, p<0.0001
tumour outcome (control, treated, inhibition, significance) (Carcinogen: AZOXYMETHANE, 25843-45-2, Dose [Inhibitor]: 0, 400 PPM IN DIET FOR 29 WK BEGINNING 1 WK POST CARCINOGEN TREATMENT (STUDY DURATION: 32 WK), Species: RAT, Strain/Sex: F344/MALE, Target Tissue: Type of Lesion: COLON: ADENOMA, Dose [Carcinogen]: 15 MG/KG BW 1/WK FOR 2 WK): 77%, 30%, 61%, p<0.05
tumour outcome (control, treated, inhibition, significance) (Carcinogen: AZOXYMETHANE, 25843-45-2, Dose [Inhibitor]: 0, 400 PPM IN DIET FOR 29 WK BEGINNING 1 WK POST CARCINOGEN TREATMENT (STUDY DURATION: 32 WK), Species: RAT, Strain/Sex: F344/MALE, Target Tissue: Type of Lesion: COLON: CARCINOMA, Dose [Carcinogen]: 15 MG/KG BW 1/WK FOR 2 WK): 53%, 13%, 75%, p<0.05
tumour outcome (control, treated, inhibition, significance) (Carcinogen: N-BUTYL-N-(4-HYDROXYBUTYL)NITROSAMINE, 3817-11-6, Dose [Inhibitor]: 0, 200 MG/KG DIET FOR 24 WK BEGINNING 1 WK PRIOR TO CARCINOGEN TREATMENT (STUDY DURATION: 24 WK), Species: MOUSE, Strain/Sex: BDF/MALE, Target Tissue: Type of Lesion: URINARY BLADDER: TRANSITIONAL CELL CARCINOMA, Dose [Carcinogen]: 7.5 MG 1/WK FOR 8 WK): 20/74 (27%), 6/73 (8%), 70%, p<0.01
tumour outcome (control, treated, inhibition, significance) (Carcinogen: N-BUTYL-N-(4-HYDROXYBUTYL)NITROSAMINE, 3817-11-6, Dose [Inhibitor]: 0, 400 MG/KG DIET FOR 24 WK BEGINNING 1 WK PRIOR TO CARCINOGEN TREATMENT (STUDY DURATION: 24 WK), Species: MOUSE, Strain/Sex: BDF/MALE, Target Tissue: Type of Lesion: URINARY BLADDER: TRANSITIONAL CELL CARCINOMA, Dose [Carcinogen]: 7.5 MG 1/WK FOR 8 WK): 20/74 (27%), 2/75 (3%), 89%, p<0.01
tumour outcome (control, treated, inhibition, significance) (Carcinogen: N-NITROSOMETHYLBENZYLAMINE, 937-40-6, Dose [Inhibitor]: 0, 125 PPM IN DIET FOR DURATION OF STUDY BEGINNING 1 WK POST CARCINOGEN TREATMENT (STUDY DURATION: 25 WK), Species: RAT, Strain/Sex: F344/MALE, Target Tissue: Type of Lesion: ESOPHAGUS: TUMOR, Dose [Carcinogen]: 1 MG/KG 3/WK FOR 5 WK): 15/15 (100%), 14/15 (93%), 7%, not significant
tumour outcome (control, treated, inhibition, significance) (Carcinogen: N-NITROSOMETHYLBENZYLAMINE, 937-40-6, Dose [Inhibitor]: 0, 125 PPM IN DIET FOR DURATION OF STUDY BEGINNING 2 WK PRIOR TO CARCINOGEN TREATMENT (STUDY DURATION: 25 WK), Species: RAT, Strain/Sex: F344/MALE, Target Tissue: Type of Lesion: ESOPHAGUS: TUMOR, Dose [Carcinogen]: 1 MG/KG 3/WK FOR 5 WK): 15/15 (100%), 14/15 (93%), 7%, not significant
